Laboratory results from publication PMC5059489, “Mechanistic evaluation and transcriptional signature of a glutathione S-transferase omega 1 inhibitor” (Nature Communications, 2016).

Assays:
[1] = system: BxPC3; test: MTT cytotoxicity GI50, BxPC3; type: cell-based; settings: Homo sapiens, BXPC-3
Description: Cell proliferation was assessed by a MTT assay. Cancer cells were seeded in 96-well microtitre plates and, after overnight attachment, treated with GSTO1 inhibitors. After 72 h, MTT solution (3 mg ml^−1; 20 μl) was added to each well and cells were incubated for 3 h at 37 °C. After incubation, media from each well was removed and the dark blue formazan crystals formed by live cells were dissolved in DMSO (150 μl per well). The absorbance intensity was measured at 570 nm on a microplate reader (Molecular Devices, Sunnyvale, CA, USA). Cell viability after 24 h treatment was assessed using ApoTox-Glo triplex assay (Promega) according to the manufacturer's protocol. At least three independent dose–response experiments with each concentration tested in triplicate were performed for each cell line.

[2] = system: THP-1 cells; test: IL-1β secretion from LPS-primed THP-1 cells; type: cell-based; settings: LPS-primed THP-1, 1.5 h, then ATP 5 mM 30 min, western blot
Description: HCT116 cells were seeded in a six-well plate and treated with GSTO1 inhibitors for 24 h. Cells were washed with ice-cold PBS and lysed with a triple detergent lysis buffer supplemented with protease and phosphatase inhibitor cocktail. Lysate was sonicated and centrifuged at 12,000 r.p.m. for 10 min at 4 °C to remove cell debris. Total protein concentration in the supernatant was measured using BCA protein assay kit (Pierce Biotechnology). For IL-1β experiments, THP-1 cells (1 × 10^6 per well) were seeded in a 12-well plate and differentiated overnight with 10 nM phorbol myristate acetate. […] Band intensities were quantified using Image J software. […]
Supplementary Fig. 23. […] (a) ATP-induced IL-1β secretion from LPS-stimulated THP-1 cells was analyzed by ELISA. […] Cytokine secretion level is expressed as a percentage of that released from control cells treated with DMSO. Data are mean readings of duplicate wells. […]
treated with indicated concentrations of C1-27 or GLY (50 µM) for 1.5 h, followed by stimulation with ATP (5 mM) for 30 min. Concentrated supernatant was analyzed by western blotting using anti IL-1β antibody. […] Expression of pro- IL-1β in response to LPS was analyzed by western blotting. […] Representative plots of several gene expression datasets analyzed in Oncomine are shown. […]

[3] = system: HCT116 cells; test: Bru-seq nascent RNA profiling; settings: 24 h treatment
Description: The data set was analysed using the DAVID, ingenuity pathway analysis (IPA) and GSEA for pathway identification. […] Data sets with nearly 250 genes containing the gene identifiers and fold changes were uploaded to the IPA web-based application and each gene identifier was mapped to its corresponding gene object in the ingenuity pathways knowledge base. Finally, the biological function genes were ordered by P value of significance and maximum number of genes in the pathway. Bru-Seq data were further analysed using GSEA for exploring the mechanism of cellular action of GSTO1 and its inhibitor. A pre-ranked gene list of the Bru-Seq data set was submitted to GSEA, and enrichment analysis was done based on the Kolmogorov–Smirnov statistic[59][60]. […] For each gene set, the ES (enrichment score) was normalized to account for differences in gene set size and the false discovery rate relative to the normalized enrichment score values was calculated.

[4] = system: HCT116 cells; test: Caspase 3/7 assay (ApoTox-Glo); type: cell-based, human; settings: 24 h
Description: HCT116 cells were treated with indicated concentrations of C1-27 for 24 h. Caspase activation was measured using ApoTox-Glo triplex assay reagent according to the manufacturer's recommendation.

[5] = system: HCT116 cells; test: Cell cycle analysis by flow cytometry; type: cell-based, human; settings: 5 μM, 24 h
Description: Cells were seeded at a density of 0.5 × 10^6 per well in a six-well plate. After overnight attachment, cells were treated with C1-27 (5 μM) for 24 h and collected using trypsin. Cells were then washed twice with PBS containing 10% serum and fixed with 70% ethanol overnight at −20 °C. Fixed cells were washed twice in PBS containing 10% serum and stained with 50 μg ml^−1 propidium iodide solution containing 100 μg ml^−1 RNase A for 1 h at 37 °C. Cell cycle was analysed on a BD LSR II flow cytometer (BD Biosciences) and data were analysed using ModFit software.

CN(C)S(=O)(=O)c1cc(NC(=O)CCl)ccc1Cl [C1-27]
GI50 [1]: 5.5 ± 1 µM | IL-1β release [2]: Dose-dependent inhibition | overlap of transcriptional changes with the inactive control C1-14 [3]: < 12% | caspases [4]: activation | S-phase population [5]: increase
